Source: patent publication US20260273028A1, “PEROXIDASE COMPOSITIONS CONTAINING IMPROVED ENHANCING AGENTS” (FLEN HEALTH PHARMA NV, priority 2022, published 2026)

Experiments:
S. aureus (ATCC®6538™) = assay: Microbial challenge testing in alginogel with GOX+LPO; type: cell-based; details: for antimicrobial efficacy against S. aureus of halide alone, 0 vs 80 minute timepoint: alginogel, halide alone (without enzymes) 0.03% (v/v)
Description: To determine the ability of an antimicrobial agent to elicit an antimicrobial preserving efficacy in a gel environment, a microbiological challenge test can be performed. Here, the antimicrobial agent is a combination of the natural enzymes GOX+LPO. […] Microbial challenge testing was performed according to the method described in the European Pharmacopoeia current version chapter 5.1.3 ‘Efficacy of antimicrobial preservation’, but with adapted time points (0, 10, 20, 30, 40, 50, 60, 70 and 80 min instead of 0, 2, 7, 14 and 28 days). In brief, for every enhancing agent to be evaluated, a lab-scale alginogel (based on the Flaminal® formulation, but without the original enhancer guaiacol) including 0.0075% GOX+LPO (1:1) was prepared according to standard practices. Enhancing agents were added to the alginogel in a final concentration ranging from 0.01 to 0,00025% (v/w). As a reference, an alginogel including 0.0075% GOX+LPO (1:1) without the addition of any enhancing agent was included (designated as: enzymes only). As a control, an alginogel without both GOX+LPO (1:1) enzyme solution and enhancing agent (designated as: empty gel) as well as an alginogel only containing the enhancing agent only (designated as: enhancing candidate only) were included. After preparation, a homogenous sample of 10 g was transferred into a 50 ml conical tube for each alginogel to be evaluated and microorganism to be tested. For each test microorganism, including S. aureus (ATCC®6538™), P. aeruginosa (ATCC®9027™), C. albicans (ATCC®10231™) and A. niger (ATCC®16404 ™), a microbial suspension of about 10^8 CFU/ml was prepared in sterile diluent (buffered sodium chloride-peptone solution). Then, the 50 ml conical tubes containing the alginogel samples to be evaluated were inoculated with 100 μl of the designated inoculum. At the start (time point 0) and after 0, 10, 20, 30, 40, 50, 60, 70 and 80 min, the number of viable microorganisms per gram product (expressed as CFU/g) was determined by transferring a sample of 0.5 g of the product into a 15 ml conical tube containing 4.5 ml of sterile diluent and applying general dilution and plate count techniques. For each combination evaluated, this test was repeated at least 1-3 times. The collected data were further analyzed in MS Excel. Mean absolute counts (expressed as log CFU/g) were visualized in a graph.
The purpose of the hereby described experiment was to compare the efficacy of antimicrobial activity enhancement of the GOX+LPO (1:1) enzyme combination by ethanolamine and proline in a microbial challenge test using S. aureus. The test was set up as described in the section on ‘challenge testing’ in Example 2.4. The test was repeated at least 3 times.
The purpose of the hereby described experiment was to compare the efficacy of antimicrobial activity of the GOX+LPO (1:1) enzyme combination in the presence of potassium chloride/potassium bromide and potassium iodide. A microbial challenge test using S. aureus was performed. The test was set up as described in the section on ‘challenge testing’ in Example 2.4.

Lactoperoxidase = Lactoperoxidase (Bos taurus, UniProt P80025); assay: Lactoperoxidase (LPO) activity, spectrophotometric assay (ABTS); type: biochemical; details: concentration not given
Description: Lactoperoxidase is a member of the heme peroxidase family of enzymes that, together with a catalytic anion (such as I^−, derived from KI, present in the substrate), will catalyse the oxidation of H2O2, leading to hypojodite (IO^−). This hypojodite is a reactive oxygen species (ROS). To measure the enzymatic activity of LPO, a standard spectrophotometric assay is performed. In brief, H2O2 combined with 2,2′-azino-bis (3-ethylbenzothiazoline-6-sulfonzuur (ABTS) is catalysed by LPO so that the formation of a coloured compound is achieved that can in turn be measured by spectrophotometry. LPO was tested in 3 different concentrations, i.e., 50, 10 and 1 mg/ml. Each reaction mixture was tested in duplo. In the event LPO activity was evaluated in the presence of a potentiator candidate (=a molecule that might be able to augment the enzymatic activity of LPO), the latter was added in a low and high concentration ranging from 100 to 0.1 mg/ml. The blank consisted of the reaction mix in which H2O2 was absent. The absorbance was immediately measured with a plate reader (Spectramax ID3, Molecular Devices) every 12 seconds for 5 minutes at 20° C. For each combination evaluated, this test was repeated at least 2 times. Results were further analysed in MS Excel and expressed as U/g. Mean blank-corrected data±SD were plotted. Statistical significance compared to the combination without potentiator candidate (reference) was calculated using students' t-tests. Significance is achieved when the obtained p-value is lower than 0,05. Significance levels were defined as p<0.05=*; p<0.01=** and p<0.001=***.

[1] = test system: Pseudomonas aeruginosa ATCC®9027™; assay: MBC determination, broth microdilution with CFU enumeration; type: cell-based; details: P. aeruginosa; guaiacol added as enhancing agent
Description: The minimal bactericidal concentration (MBC) is defined as the lowest concentration of an antimicrobial agent that results in a complete killing of the microbial population (determined via standard CFU enumeration techniques) after overnight incubation. This endpoint measurement is used, together with the MIC (see above), to define the microbial susceptibility towards an antimicrobial agent. Here, the antimicrobial agent is a combination of the natural enzymes GOX+LPO.
To determine the MBC of the described combinations, a classical broth microdilution assay combined with standard CFU enumeration techniques was used to determine the susceptibility of a series of microbes commonly detected in infected wounds, including (a) the Gram-positive bacterium Staphylococcus aureus ATCC® 6538™ (results shown below), (b) the Gram-negative bacterium Pseudomonas aeruginosa ATCC®9027™ (results shown below), (c) the yeast Candida albicans ATCC®10231™ (results shown below), and (d) the fungus Aspergillus niger ATCC®16404™ (results shown below). In brief, the broth microdilution assay was set up as previously described (see 2.1). After incubation, the MBC was determined by investigating the presence of viable microorganisms at the MIC and following higher concentrations (MICx2, MICx4, and so on) using standard CFU enumeration techniques. For each combination evaluated, this test was repeated at least 5 times. The collected data were further analyzed in MS Excel. Mean concentration data (expressed as log CFU/ml) were visualized in a table format in which the MBC was highlighted.

[2] = test system: Staphylococcus aureus ATCC® 6538™; assay: MIC determination, broth microdilution, GOX+LPO with potentiator candidate; type: cell-based; details: S. aureus; guaiacol added as enhancing agent
Description: (§1) The minimum inhibitory concentration (MIC) is defined as the lowest concentration of an antimicrobial agent that results in a complete inhibition of microbial growth (determined via visual evaluation or absorbance measurements) after overnight incubation. This endpoint measurement is used to define the microbial susceptibility towards an antimicrobial agent. Here, the antimicrobial agent is a combination of the natural enzymes GOX+LPO.
(§2) To determine the MIC of the described combinations, a classical broth microdilution assay was used to determine the susceptibility of a series of microbes commonly detected in infected wounds, including (a) the Gram-positive bacterium Staphylococcus aureus ATCC® 6538™ (results shown below), (b) the Gram-negative bacterium Pseudomonas aeruginosa ATCC®9027™ (results shown below), (c) the yeast Candida albicans ATCC®10231™ (results shown below), and (d) the fungus Aspergillus niger ATCC®16404™ (results shown below). In brief, a […] serial dilution of the enzymatic GOX+LPO solution was prepared in a transparent, flat-bottomed 96-well test plate with final concentrations ranging from 0.005 to 0.00000977% (v/v). To each well, a fixed volume of the enzymatic substrate containing 3,3% (w/v) glucose and 0,084% (w/v) potassium iodide, as well as the microbial inoculum with an OD600 of 0.1 was added. In the event the enzyme combination was evaluated in the presence of a potentiator candidate, the latter was added together with the enzymatic substrate in a final concentration ranging from 100 to 0,00125% (v/v). For each combination evaluated, a blank (no addition of microbial inoculum) was included. Positive (inoculum only) and negative (background solution only) were included to evaluate the performance of the test and to select the enzymatic GOX+LPO concentration at which no microbial growth is detected (i.e., absorbance equal to that of the background solution only). Then, the 96-well test plate was incubated for 24 hours at 37° C. (S. aureus, P. aeruginosa and C. albicans) or 25° C. (A. niger). After incubation, the absorbance of each well was measured using a plate spectrophotometer (Spectramax ID3, Molecular Devices). For each combination evaluated, this test was repeated at least 5 times. The collected data were further analyzed in MS Excel. Mean absorbance data were visualized in a table format in which the MIC was highlighted.

[3] = test system: Pseudomonas aeruginosa ATCC®9027™; assay: as above; type: cell-based; details: P. aeruginosa; guaiacol added as enhancing agent
Description: as §1, §2

GOX = GOX (Aspergillus niger, UniProt P13006); assay: Glucose oxidase (GOX) activity, spectrophotometric assay; type: biochemical; details: cysteine 1-0.1 mg/ml (FIG. 1)
GOX, sequence (P13006 17-605): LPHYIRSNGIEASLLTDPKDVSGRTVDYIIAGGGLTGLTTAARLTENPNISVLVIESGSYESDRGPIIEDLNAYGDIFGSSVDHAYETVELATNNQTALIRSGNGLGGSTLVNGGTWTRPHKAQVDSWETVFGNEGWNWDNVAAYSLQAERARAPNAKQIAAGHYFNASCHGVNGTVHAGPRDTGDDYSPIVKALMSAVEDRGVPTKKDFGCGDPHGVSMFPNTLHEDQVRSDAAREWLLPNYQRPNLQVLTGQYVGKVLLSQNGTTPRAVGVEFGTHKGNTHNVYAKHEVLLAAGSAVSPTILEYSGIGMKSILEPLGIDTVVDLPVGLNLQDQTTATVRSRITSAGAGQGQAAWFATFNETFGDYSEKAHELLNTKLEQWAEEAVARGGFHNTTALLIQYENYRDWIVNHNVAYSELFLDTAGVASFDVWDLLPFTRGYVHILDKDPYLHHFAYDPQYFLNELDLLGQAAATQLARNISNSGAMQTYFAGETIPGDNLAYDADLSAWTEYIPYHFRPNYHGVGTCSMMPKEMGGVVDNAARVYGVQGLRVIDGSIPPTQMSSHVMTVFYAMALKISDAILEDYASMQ
Description: The natural enzyme GOX is an oxidoreductase that catalyses the oxidation of glucose to gluconic acid and hydrogen peroxide (H2O2) in the presence of water and air. To measure the enzymatic activity of GOX, a standard spectrophotometric assay is performed. In brief, a second oxidoreductase enzyme, peroxidase, and a chromogenic oxygen acceptor, o-dianisidine, are added to the former reaction mix (GOX+glucose+water+air) so that the formation of a coloured compound is achieved that can in turn be measured by spectrophotometry. GOX was tested in 4 different concentrations, i.e., 100, 50, 10 and 1 mg/ml. Each reaction mixture was tested in duplo. In the event GOX activity was evaluated in the presence of a potentiator candidate (=a molecule that might be able to augment the enzymatic activity of GOX), the latter was added in a low and high concentration ranging from 100 to 0.1 mg/ml. The blank consisted of the reaction mix in which the enzymes were absent. After mixing all reaction elements, absorbance was immediately measured with a plate reader (Spectramax ID3, Molecular Devices) every minute for 5 minutes at 35° C. For each combination evaluated, this test was repeated at least 2 times. Results were further analysed in MS Excel and expressed as U/g. Mean blank-corrected data±SD were plotted. Statistical significance compared to the combination without potentiator candidate (reference) was calculated using students' t-tests. Significance is achieved when the obtained p-value is lower than 0,05. Significance levels were defined as p<0.05=*; p<0.01=** and p<0.001=***.

NCCO [ethanolamine, reference compound]
exposure time to complete reduction of absolute S. aureus counts (average) (S. aureus (ATCC®6538™); alginogel with GOX+LPO (1:1), enhancer 0,0005% (v/v)): 70 min

[I-].[K+] [KI, potassium iodide]
time to complete reduction of absolute S. aureus counts (S. aureus (ATCC®6538™); alginogel with GOX+LPO (1:1), halide 0,03% (v/v)): 70 min
time to complete reduction of absolute S. aureus counts (S. aureus (ATCC®6538™); alginogel with GOX+LPO (1:1), halide 0,003% (v/v)): 80 min
antimicrobial efficacy against S. aureus of halide alone, 0 vs 80 minute timepoint (S. aureus (ATCC®6538™)): did not result in any difference in antimicrobial efficacy

CC(C)C[C@H](N)C(=O)O [leucine, reference compound]
LPO activity compared to reference (Lactoperoxidase): did not result in a significant difference

[Cl-].[K+] [KCl, potassium chloride, reference compound]
antimicrobial efficacy against S. aureus of halide alone, 0 vs 80 minute timepoint (S. aureus (ATCC®6538™)): did not result in any difference in antimicrobial efficacy

COc1ccccc1O [guaiacol, reference compound]
MBC: GOX+LPO enzyme solution needed [1]: 0.00125 % (v/v)
MIC: GOX+LPO enzyme solution needed to completely inhibit growth [2]: 0.0000781 % (v/v)
MIC: GOX+LPO enzyme solution needed to completely inhibit growth [3]: 0.00125 % (v/v)

[Br-].[K+] [KBr, potassium bromide, reference compound]
antimicrobial efficacy against S. aureus of halide alone, 0 vs 80 minute timepoint (S. aureus (ATCC®6538™)): did not result in any difference in antimicrobial efficacy

N[C@@H](CS)C(=O)O [cysteine, reference compound]
GOX activity compared to reference (GOX): significant lower GOX activity
